According to patent publication US20230295157A1, “3-(1H-IMIDAZOL-2-YL)-2,3,8,8A-TETRAHYDROINDOLIZIN-5(1H)-ONE DERIVATIVES USEFUL AS FACTOR XIA INHIBITORS” (JANSSEN PHARMACEUTICA NV, priority 2020, published 2023):
Read-outs that look alike come from different tables or passages of the source.

Key:
[1] = biological target: human plasma kallikrein (Homo sapiens (Human), UniProt P03952); assay: Kallikrein inhibition assay (FLINT) utilizing a quenched AMC peptide substrate; type: biochemical; conditions: 30 min preincubation, read-out: Kallikrein Kin Inh IC50
Experimental: Biological Example 2: Kallikrein Inhibition Assay Utilizing a Quenched AMC Peptide Substrate A fluorescence intensity (FLINT) based assay was used to monitor inhibition of human plasma kallikrein.
The Kallikrein FLINT assay was used with the following Z-Gly-Pro-Arg-AMC assay buffer: 50 mM Tris, pH 7.5, 100 mM NaCl, 5 mM CaCl2), 0.1 mg/mL BSA, 0.03% CHAPS. Assay buffer was prepared by mixing all ingredients fresh. 2×Z-Gly-Pro-Arg-AMC peptide substrate was prepared by diluting 10 mM stock into 1×assay buffer for a 100 μM working concentration (50 μM final concentration). The 2×kallikrein stock solution was prepared by diluting 14.76 μM stock in 1×assay buffer for a 4 nM working stock solution (2 nM final concentration).
Test compound(s) were run in an 11-point, 3-fold serial dilution with a final top compound concentration of 1 μM. Final DMSO in assay was 2%. Plasma kallikrein was pre-incubated for 30-minute with compound and then 50 μM substrate was added to initiate the reaction. The assay was run with kinetic (KIN) reads at 5 min intervals over 30 minutes. […] More specifically, the assay was run as follows: • 100 nL of 0.1 mM test compound was dispensed into black 384-well non-binding Greiner BioOne 784900 plate for 1 μM final concentration; • 5 μL of 1×assay buffer was dispensed to columns 24 (low control) and 5 μL 2×human kallikrein enzyme solution was dispensed to columns 1-23 (column 23 high control); • the plate was centrifuged with a “cover” plate at 500 rpm for 1 min • the plate was pre-incubated for 30 minutes at room temperature with plate covered; • 5 μL of 2×Z-Gly-Pro-Arg-AMC peptide substrate was dispensed into the entire plate, columns 1-24; • the plate was centrifuged with a “cover” plate at 500 rpm for 1 min; • the plate was read monitoring fluorescence intensity on the BMG PHERAStar at room temperature, using fluorescence module 340 nm/440 nm.
(§1) Percent inhibition (IC50) curves were generated per compound tested, and data was analyzed using a 4-parameter logistic fit using GeneData Screener. The relative fluorescence unit (RFU) values were normalized to percent inhibition using the following equation:
% inhibition=((HC-LC)−(compound-LC)\(HC-LC))*100 where LC—low control=mean signal of human kallikrein enzyme or 100% inhibition of human kallikrein enzyme; HC—high control=mean signal of Factor XIa+Z-Gly-Pro-Arg-AMC peptide substrate with DMSO only.
(§2) An 11-point dose response curve for the test compound(s) was generated using GENDATA to determine IC50 value based on the following equation:
Y=Bottom+(Top-Bottom)/(1+10^((logIC50−X)*HillSlope)) where Y is the % inhibition in the presence of X inhibitor concentration, Top=high control=mean signal of human kallikrein enzyme+Z-Gly-Pro-Arg-AMC peptide substrate with DMSO only; Bottom=low control−mean signal of no human kallikrein enzyme or 100% inhibition of human kallikrein enzyme; HillSlope—Hill coefficient; and IC50=concentration of compound with 50% inhibition in relation to top/high control.

[2] = biological target: Factor XIa (Homo sapiens (Human), UniProt P03951); assay: Factor XIa inhibition assay (FLINT) utilizing a fluorophore-quencher pair peptide substrate; type: biochemical; conditions: 30 min preincubation, kinetic reads over 30 min, read-out: FXIa Kin Inh IC50
Source text: Biological Example 1: Factor XIa Inhibition Assay Utilizing a Fluorophore-Quencher Pair Peptide Substrate
A fluorescence intensity (FLINT) based assay was used to monitor inhibition of Factor XIa. The peptide substrate, 5Fam-[…]-K5Tamra (purchased from New England Peptide) was chosen based on the FXI sequence. Conversion of zymogen […]. The custom peptide used in this assay was based on the Arg146 cleavage site of FXI. The peptide substrate was designed with a fluorophore-quencher pair, where the fluorescence is quenched until FXIa cleaves the 8-mer peptide after the Arg residue.
The Factor XIa FLINT assay was used with the following 5Fam-[…]-K5Tamra assay buffer: 50 mM Tris, pH 7.5, 100 mM NaCl, 5 mM CaCl2), 0.1 mg/mL BSA, 0.03% CHAPS. Assay buffer was prepared by mixing all ingredients fresh. 5Fam-[…]-K5Tamra peptide substrate was first prepared at 10 mM in 100% DMSO, then diluted to 3 mM in 100% DMSO. Assay buffer was then added directly to the 3 mM stock of substrate to prepare the 30 μM 2× working concentration (15 μM final concentration). The 2×Factor XIa stock solution was prepared by diluting 6.562 μM stock in 1×assay buffer for a 200 μM working stock solution (100 μM final concentration).
Test compound(s) were run in an 11-point, 3-fold serial dilution with a final top compound concentration of 100 nM. Final DMSO in assay was 2%. FXIa was preincubated with compound for 30-minutes and then substrate was added to initiate the reaction. The assay was run with kinetic (KIN) reads at 5 min intervals over 30 minutes. The time course was linear using 100 μM FXIa greater than 30 minutes. More specifically, the assay was run as follows: • 100 nL of 0.01 mM test compound was dispensed into black 384 well non-binding Greiner BioOne 784900 plate for 0.1 μM final concentration; • 5 μL of 1×assay buffer was dispensed to column 24 (low control) and 5 μL 2×Factor XIa solution was dispensed to columns 1-23 (column 23 high control); • the plate was centrifuged with a “cover” plate at 500 rpm for 1 min • the plate was pre-incubated for 30 minutes at room temperature with plate covered; • 5 μL of 2×5Fam-[…]-K5Tamra peptide substrate was dispensed into the entire plate, columns 1-24; • the plate was centrifuged with a “cover” plate at 500 rpm for 1 min; • the plate was read monitoring fluorescence intensity on the BMG PHERAStar at room temperature, using fluorescence module 485 nm/520 nm.
as §1
% inhibition=((HC-LC)−(compound−LC)/(HC-LC))*100
where LC—low control=mean signal of no Factor XIa or 100% inhibition of Factor XIa; HC—high control=mean signal of Factor XIa+5Fam-[…]-K5Tamra peptide substrate with DMSO only.
as §2
Y=Bottom+(Top-Bottom)/(1+10^((logIC50-X)*HillSlope))
where Y is the % inhibition in the presence of X inhibitor concentration, Top=high control=mean signal of Factor XIa+5Fam-[…] K5Tamra peptide substrate with DMSO only; Bottom=low control−mean signal of no Factor XIa or 100% inhibition of Factor XIa; HillSlope—Hill coefficient; and IC50=concentration of compound with 50% inhibition in relation to top/high control.
Representative compounds of the present invention were tested according to the procedure described in Biological Example 1 and Biological Example 2 above, with results as listed in Table 3, below.

[3] = kinetic reads over 30 min, Z-Gly-Pro-Arg-AMC substrate 50 μM
[4] = 5Fam-KLTRAETV-K5Tamra substrate 15 μM

human plasma kallikrein, sequence (P03952 391-638): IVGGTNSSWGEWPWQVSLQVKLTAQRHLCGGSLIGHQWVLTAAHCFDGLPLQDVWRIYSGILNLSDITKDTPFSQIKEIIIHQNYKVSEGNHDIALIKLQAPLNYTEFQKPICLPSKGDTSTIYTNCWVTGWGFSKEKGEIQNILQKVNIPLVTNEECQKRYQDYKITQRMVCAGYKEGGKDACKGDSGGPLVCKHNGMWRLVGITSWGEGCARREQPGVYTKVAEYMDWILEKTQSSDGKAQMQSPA
human plasma kallikrein, sequence (P03952 20-390 partner): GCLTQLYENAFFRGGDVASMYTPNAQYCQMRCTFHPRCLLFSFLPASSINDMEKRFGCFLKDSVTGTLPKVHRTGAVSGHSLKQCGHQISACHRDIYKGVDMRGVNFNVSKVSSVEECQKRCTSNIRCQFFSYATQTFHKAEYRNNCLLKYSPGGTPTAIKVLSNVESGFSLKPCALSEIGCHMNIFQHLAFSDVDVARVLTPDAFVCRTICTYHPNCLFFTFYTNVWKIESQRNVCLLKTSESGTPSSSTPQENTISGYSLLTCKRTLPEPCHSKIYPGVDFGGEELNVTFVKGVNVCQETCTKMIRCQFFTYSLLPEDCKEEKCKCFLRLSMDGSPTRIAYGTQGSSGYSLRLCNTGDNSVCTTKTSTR
Factor XIa, sequence (P03951 388-625): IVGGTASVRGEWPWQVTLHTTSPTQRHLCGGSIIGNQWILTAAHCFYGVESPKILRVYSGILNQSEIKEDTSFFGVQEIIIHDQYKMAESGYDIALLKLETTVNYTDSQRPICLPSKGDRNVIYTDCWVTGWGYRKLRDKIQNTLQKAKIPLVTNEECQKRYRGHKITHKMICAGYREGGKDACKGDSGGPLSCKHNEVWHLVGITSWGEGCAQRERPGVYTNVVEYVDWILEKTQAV
Factor XIa, sequence (P03951 19-387 partner): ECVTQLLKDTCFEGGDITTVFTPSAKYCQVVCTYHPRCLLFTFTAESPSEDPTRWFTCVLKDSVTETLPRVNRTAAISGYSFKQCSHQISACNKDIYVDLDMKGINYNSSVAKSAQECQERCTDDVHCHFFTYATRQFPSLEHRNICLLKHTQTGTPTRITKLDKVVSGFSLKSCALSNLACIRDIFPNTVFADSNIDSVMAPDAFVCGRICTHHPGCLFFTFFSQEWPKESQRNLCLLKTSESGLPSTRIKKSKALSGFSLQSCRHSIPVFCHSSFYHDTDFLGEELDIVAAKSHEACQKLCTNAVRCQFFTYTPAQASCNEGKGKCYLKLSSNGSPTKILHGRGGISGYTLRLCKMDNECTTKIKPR

IC50 [1, 3] [µM] | IC50 [2, 4] [nM] | IC50 ([2]; 5Fam-[…]-K5Tamra substrate 15 μM) [nM] | IC50 ([1]; μM, kinetic reads) [µM] | SMILES
0.0326 | 4.5 | – | – | O=C1C=C(c2c(-n3cnnn3)ccc(Cl)c2F)C[C@H]2CC[C@@H](c3ncc(-c4c[nH]nc4F)[nH]3)N12 [Example 217, (3S,8aR)-7-(3-Chloro-2-fluoro-6-(1H-tetrazol-1-yl)phenyl)-3-(5-(3-fluoro-1H-pyrazol-4-yl)-1H-imidazol-2-yl)-2,3,8,8a-tetrahydroindolizin-5(1H)-one]
0.0007 | 0.3 | – | – | O=C1C=C(c2c(-n3cnnn3)ccc(Cl)c2F)CC2CC[C@@H](c3ncc(-c4ccc5[nH]c(=O)ccc5c4)[nH]3)N12 (stereo partly drawn) [Example 261, 6-[2-[(3S)-7-[3-Chloro-2-fluoro-6-(tetrazol-1-yl)phenyl]-5-oxo-2,3,8,8a-tetrahydro-1H-indolizin-3-yl]-1H-imidazol-5-yl]-1H-quinolin-2-one]
0.0384 | 10.2 | – | – | NC(=O)c1ccc(-c2cnc([C@H]3CC[C@@H]4CC(c5c(-n6cnnn6)ccc(Cl)c5F)=CC(=O)N43)[nH]2)cn1 (single isomer, unassigned) [Example 226]
0.0014 | 0.2 | – | – | COC(=O)Nc1ccc(-c2cnc([C@@H]3CCC4CC(c5c(-n6cnnn6)ccc(Cl)c5F)=CC(=O)N43)[nH]2)cc1 (stereo partly drawn) [Example 355, Methyl (4-(2-((3S)-7-(3-chloro-2-fluoro-6-(1H-tetrazol-1-yl)phenyl)-5-oxo-1,2,3,5,8,8a-hexahydroindolizin-3-yl)-1H-imidazol-5-yl)phenyl)carbamate]

The remaining lines, values behind:

SMILES | IC50 [1, 3] [µM] | IC50 [2, 4] [nM] | IC50 ([2]; 5Fam-[…]-K5Tamra substrate 15 μM) [nM] | IC50 ([1]; μM, kinetic reads) [µM]
CONC(=O)c1nccc(-c2cnc([C@@H]3CC[C@@H]4CC(c5c(-n6cnnn6)ccc(Cl)c5F)=CC(=O)N43)[nH]2)c1F [Example 103, 4-[2-[(3S,8aR)-7-[3-Chloro-2-fluoro-6-(tetrazol-1-yl)phenyl]-5-oxo-2,3,8,8a-tetrahydro-1H-indolizin-3-yl]-1H-imidazol-5-yl]-3-fluoro-N-methoxy-pyridine-2-carboxamide] | 0.0531 | 1.6 | – | –
C[C@H](Oc1nccc(-c2cnc([C@@H]3CC[C@@H]4CC(c5c(-n6cnnn6)ccc(Cl)c5F)=CC(=O)N43)[nH]2)c1F)c1nnco1 (relative stereo) [Example 128, (3S*,8aR*)-3-(5-(2-((S*)-1-(1,3,4-oxadiazol-2-yl)ethoxy)-3-fluoropyridin-4-yl)-1H-imidazol-2-yl)-7-(3-chloro-2-fluoro-6-(1H-tetrazol-1-yl)phenyl)-2,3,8,8a-tetrahydroindolizin-5(1H)-one] | 0.0128 | – | 6.1 | –
O=C(O)c1nccc(-c2cnc([C@@H]3CC[C@@H]4CC(c5c(-n6cc(C(F)(F)F)nn6)ccc(Cl)c5F)=CC(=O)N43)[nH]2)c1F [Example 58, 4-(2-((3S,8aR)-7-(3-chloro-2-fluoro-6-(4-(trifluoromethyl)-1H-1,2,3-triazol-1-yl)phenyl)-5-oxo-1,2,3,5,8,8a-hexahydroindolizin-3-yl)-1H-imidazol-5-yl)-3-fluoropicolinic acid] | 0.0492 | 0.7 | – | –
Nc1ccc(-c2cnc([C@H]3CC[C@@H]4CC(c5cc(Cl)ccc5-n5cnnn5)=CC(=O)N43)[nH]2)c(F)n1 (single isomer, unassigned) [Example 119, (3*R,8aR)-3-(5-(6-amino-2-fluoropyridin-3-yl-5-d)-1H-imidazol-2-yl)-7-(5-chloro-2-(1H-tetrazol-1-yl)phenyl-3-d)-2,3,8,8a-tetrahydroindolizin-5(1H)-one] | 0.0117 | 0.6 | – | –
CCOC(=O)Nc1ccncc1-c1c[nH]c([C@@H]2CCC3CC(c4c(-n5cnnn5)ccc(Cl)c4F)=CC(=O)N32)n1 (stereo partly drawn) [Example 251, Ethyl N-[3-[2-[(3S)-7-[3-chloro-2-fluoro-6-(tetrazol-1-yl)phenyl]-5-oxo-2,3,8,8a-tetrahydro-1H-indolizin-3-yl]-1H-imidazol-4-yl]-4-pyridyl]carbamate] | 0.226 | 32.2 | – | –
NC(=O)c1ccc(-c2c[nH]c([C@@H]3CC[C@@H]4CC(c5c(-n6cc(C(F)(F)F)nn6)ccc(Cl)c5F)=CC(=O)N43)n2)s1 [Example 220, 5-(2-((3S,8aR)-7-(3-Chloro-2-fluoro-6-(4-(trifluoromethyl)-1H-1,2,3-triazol-1-yl)phenyl)-5-oxo-1,2,3,5,8,8a-hexahydroindolizin-3-yl)-1H imidazol-4-yl)thiophene-2-carboxamide] | 0.0097 | 5 | – | –
N#CC1(c2nccc(-c3cnc([C@@H]4CC[C@@H]5CC(c6c(-n7cnnn7)ccc(Cl)c6F)=CC(=O)N54)[nH]3)c2F)COC1 (single isomer, unassigned) [Example 138, 3-(4-(2-((3S,8aR*)-7-(3-chloro-2-fluoro-6-(1H-tetrazol-1-yl)phenyl)-5-oxo-1,2,3,5,8,8a-hexahydroindolizin-3-yl)-1H-imidazol-5-yl)-3-fluoropyridin-2-yl)oxetane-3-carbonitrile] | 0.138 | 32 | – | –
Cn1cc(-c2ccccc2NC(=O)C2CC2)nc1[C@@H]1CC[C@@H]2CC(c3c(-n4cnnn4)ccc(Cl)c3F)=CC(=O)N21 (single isomer, unassigned) [Example 298, N-(2-(2-((3S,8aR*)-7-(3-Chloro-2-fluoro-6-(1H-tetrazol-1-yl)phenyl)-5-oxo-1,2,3,5,8,8a-hexahydroindolizin-3-yl)-1-methyl-1H-imidazol-4-yl)phenyl)cyclopropanecarboxamide] | – | > 100 | – | 1.05
